Measurements from PubChem BioAssay (NCI).
Several values for one entry are separate records, joined by “and”; a condition that tells them apart may be missing. Equal values may be shown once.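 Compound exposure: 48 hours, 5 concentrations, 96-well plates. GI50 marks 50% less growth. TGI is the concentration that stops growth completely.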

Key:
Assay in all cases: NCI tumour cell line growth inhibition, 48 h
SR leukemia = system: SR leukemia
K-562 leukemia = system: K-562 leukemia
HT29 colon = system: HT29 colon
MOLT-4 leukemia = system: MOLT-4 leukemia
HS 578T breast = system: HS 578T breast
LOX IMVI melanoma = system: LOX IMVI melanoma
SF-295 CNS = system: SF-295 CNS
EKVX NSCLC = system: EKVX NSCLC
SF-268 CNS = system: SF-268 CNS
NCI-H226 lung = system: NCI-H226 lung

Question: For `CCCn1cnc2c(SCc3ccccc3)nc(N)nc21`, which GI50 (SR leukemia) is on record?
Answer: 49.6 µM

Question: What about the TGI (SR leukemia) of the same compound?
Answer: > 100 µM

Question: And the GI50 (K-562 leukemia)?
Answer: 56.8 µM

Question: What about the TGI (K-562 leukemia) of the same compound?
Answer: > 100 µM

Question: And the GI50 (HT29 colon)?
Answer: > 100 µM

Question: And the TGI (HT29 colon)?
Answer: > 100 µM

Question: What about the GI50 (MOLT-4 leukemia) of the same compound?
Answer: 95.7 µM

Question: And the TGI (MOLT-4 leukemia)?
Answer: > 100 µM

Question: What about the GI50 (HS 578T breast) of the same compound?
Answer: > 100 µM

Question: What about the TGI (HS 578T breast) of the same compound?
Answer: > 100 µM

Question: And the GI50 (LOX IMVI melanoma)?
Answer: 98.9 µM

Question: What about the TGI (LOX IMVI melanoma) of the same compound?
Answer: > 100 µM

Question: What about the GI50 (SF-295 CNS) of the same compound?
Answer: 32.1 µM

Question: And the TGI (SF-295 CNS)?
Answer: > 100 µM

Question: What about the GI50 (EKVX NSCLC) of the same compound?
Answer: 67.3 µM

Question: And the TGI (EKVX NSCLC)?
Answer: > 100 µM

Question: And the GI50 (SF-268 CNS)?
Answer: > 100 µM

Question: And the TGI (SF-268 CNS)?
Answer: > 100 µM

Question: What about the GI50 (NCI-H226 lung) of the same compound?
Answer: 30.5 µM

Question: And the TGI (NCI-H226 lung)?
Answer: > 100 µM

Question: `COc1ccc(/C=C(/C(=O)n2cnnn2)c2cc(OC)c(OC)c(OC)c2)cc1` was tested. Which GI50 (SR leukemia) did it give?
Answer: 0.752 µM

Question: And the TGI (SR leukemia)?
Answer: > 100 µM

Question: What about the GI50 (K-562 leukemia) of the same compound?
Answer: 2.86 µM

Question: What about the TGI (K-562 leukemia) of the same compound?
Answer: > 100 µM

Question: What about the GI50 (HT29 colon) of the same compound?
Answer: 3.42 µM

Question: And the TGI (HT29 colon)?
Answer: > 100 µM

Question: What about the GI50 (MOLT-4 leukemia) of the same compound?
Answer: 4.31 µM

Question: And the TGI (MOLT-4 leukemia)?
Answer: > 100 µM

Question: And the GI50 (HS 578T breast)?
Answer: 4.07 µM

Question: And the TGI (HS 578T breast)?
Answer: > 100 µM

Question: What about the GI50 (LOX IMVI melanoma) of the same compound?
Answer: 3.82 µM

Question: What about the TGI (LOX IMVI melanoma) of the same compound?
Answer: > 100 µM

Question: What about the GI50 (SF-295 CNS) of the same compound?
Answer: 3.24 µM

Question: What about the TGI (SF-295 CNS) of the same compound?
Answer: > 100 µM

Question: And the GI50 (EKVX NSCLC)?
Answer: 5.48 µM

Question: What about the TGI (EKVX NSCLC) of the same compound?
Answer: > 100 µM

Question: What about the GI50 (SF-268 CNS) of the same compound?
Answer: 4.04 µM

Question: And the TGI (SF-268 CNS)?
Answer: > 100 µM

Question: And the GI50 (NCI-H226 lung)?
Answer: > 100 µM

Question: And the TGI (NCI-H226 lung)?
Answer: > 100 µM

Question: Which results are given for `NC(=O)C(=O)n1ncc(Cl)c(Cl)c1=O`?
Answer: TGI (SR leukemia): > 49.7 µM; TGI (K-562 leukemia): 47 µM; TGI (HT29 colon): 44.4 µM; TGI (MOLT-4 leukemia): 20.4 µM; TGI (HS 578T breast): > 100 µM; TGI (LOX IMVI melanoma): 56.6 µM; TGI (SF-295 CNS): 20.3 µM; TGI (EKVX NSCLC): 67.5 µM; TGI (SF-268 CNS): > 92.9 µM; TGI (NCI-H226 lung): > 100 µM

Question: How did the GI50 (SR leukemia) turn out when `CN(C)CCCN1c2ccccc2Sc2ccc(Cl)cc21` was run?
Answer: 3.01 µM and 3.94 µM

Question: And the TGI (SR leukemia)?
Answer: 11 µM and 20.2 µM

Question: What about the GI50 (K-562 leukemia) of the same compound?
Answer: 3.16 µM

Question: And the TGI (K-562 leukemia)?
Answer: 11.3 µM

Question: What about the GI50 (HT29 colon) of the same compound?
Answer: 3.26 µM and 3.96 µM

Question: And the TGI (HT29 colon)?
Answer: 10.8 µM and 13.6 µM

Question: And the GI50 (MOLT-4 leukemia)?
Answer: 4.78 µM and 6.84 µM

Question: And the TGI (MOLT-4 leukemia)?
Answer: 18.4 µM and 23.7 µM

Question: And the GI50 (HS 578T breast)?
Answer: 4.32 µM and 3.77 µM

Question: And the TGI (HS 578T breast)?
Answer: 24.4 µM and 21 µM

Question: What about the GI50 (LOX IMVI melanoma) of the same compound?
Answer: 10.8 µM and 10.3 µM

Question: And the TGI (LOX IMVI melanoma)?
Answer: 23.4 µM and 24.5 µM

Question: And the GI50 (SF-295 CNS)?
Answer: 4.13 µM and 8.91 µM

Question: And the TGI (SF-295 CNS)?
Answer: 17.3 µM and 22.9 µM

Question: And the GI50 (EKVX NSCLC)?
Answer: 12.7 µM and 11.8 µM

Question: What about the TGI (EKVX NSCLC) of the same compound?
Answer: 28.1 µM and 28 µM

Question: What about the GI50 (SF-268 CNS) of the same compound?
Answer: 8.89 µM and 5.25 µM

Question: And the TGI (SF-268 CNS)?
Answer: 21.4 µM and 18.5 µM

Question: What about the GI50 (NCI-H226 lung) of the same compound?
Answer: 13.1 µM and 15.2 µM

Question: What about the TGI (NCI-H226 lung) of the same compound?
Answer: 29.8 µM and 29.1 µM

Question: Which results are given for `CC(C)(CO)N=Cc1ccccc1[O-].CC(C)(CO)N=Cc1ccccc1[O-].[Co+2]`?
Answer: GI50 (SR leukemia): 14.4 µM; TGI (SR leukemia): > 90.4 µM; GI50 (K-562 leukemia): 47.3 µM; TGI (K-562 leukemia): > 100 µM; GI50 (HT29 colon): 100 µM; TGI (HT29 colon): > 100 µM; GI50 (MOLT-4 leukemia): 8.39 µM; TGI (MOLT-4 leukemia): > 100 µM; GI50 (HS 578T breast): > 100 µM; TGI (HS 578T breast): > 100 µM; GI50 (LOX IMVI melanoma): 40.5 µM; TGI (LOX IMVI melanoma): > 63.1 µM; GI50 (SF-295 CNS): > 100 µM; TGI (SF-295 CNS): > 100 µM; GI50 (EKVX NSCLC): > 84.4 µM; TGI (EKVX NSCLC): > 100 µM; GI50 (SF-268 CNS): 46.3 µM; TGI (SF-268 CNS): > 100 µM; GI50 (NCI-H226 lung): 27.9 µM; TGI (NCI-H226 lung): > 100 µM
